Read-outs that look alike come from different tables or passages of the source.
Test system: HSP70+L. infantum amastigotes
Test: ex vivo splenic explant culture of infrared HSP70+L. infantum-infected BALB/c mice, infrared fluorescence readout (384-well)
Type: cell-based
Details: Leishmania infantum
Excerpt: Several parameters were included in the development of the explant culture. i) Parasite infection rate is not equal in all animals from the same batch, thus in order to normalize the ex vivo culture, only spleens with weights ≥ 0.7 g were selected to prepare the ex vivo explants. ii) The starting cell density was adjusted in terms of fluorescence emission in a wide range of arbitrary units (0.25, 0.5, 1.0, and 2.0 x 10^5 AU). Since we intend to evaluate the drug inhibition in ex vivo cultures for at least 4 days, the initial number of AU that matched this condition was chosen. iii) Discrimination between drug-treated and untreated control cells was assessed by adding amphotericin B (AmpB) to the explants cultures. iv) To prevent the edge effect caused by evaporation from outer wells in assays with multi-day incubations, the top and bottom rows as well as the first and last columns were filled with ddH2O. In addition, the positive and negative controls were symmetrically distributed through the columns.
A total of 298 compounds belonged to three distinct collections including i) indenoisoquinolines obtained from Dr. Mark S. Cushman, Department of Medicinal Chemistry and Molecular Pharmacology (Purdue University, Indiana, USA.); ii) podophylotoxin and quinones were a kindly gift from Dr. Arturo San Feliciano, Deparment of Química Farmacéutica (Universidad de Salamanca, Spain) and iii) carbolins obtained from Dr. Sankaran Murugeshan, Department of Pharmacy, (Birla Institute of Technology & Science, Pilani, India). Stock solutions consisted of test compound at a concentration of 200 μM in 20% DMSO. The 200 μM master plates were further diluted by transferring aliquots of 5 μl into black 384-well plates with clear bottom containing 45 μl of culture medium. The final concentration of DMSO in both assay and control wells not exceeded 1% (v/v). […] The plates were incubated at 37 °C and 5% CO2 and at 0, 24, 48 and 72 h the infrared signal was recorded using the Odyssey infrared system (LI-COR, USA). […]
The antileishmanial effect of the compounds was calculated as the percentage inhibition in relation to AmpB and DMSO as follows: (mean of 1%DMSO–Experimental Value) / (mean of 1%DMSO–mean of AmpBEC100) x 100. […] The quality of the assay was given by Z’ factor that was calculated as 1 –[(3SD positive controls + 3SD negative controls) / (mean of the positive controls–mean of the negative controls)]. […]
Firstly, we checked the fluorescence dynamic range in which we could assure the effective and quantifiable replication of intracellular parasites inside macrophages in the absence of active drug over the course of the ex vivo culture. […] For this purpose, we fixed the fluorescence level per well, instead of adjusting the number of cells. […]

C[C@@H]1[C@H](O)[C@@H](C)/C=C/C=C/C=C/C=C/C=C/C=C/C=C/[C@H](O[C@@H]2O[C@H](C)[C@@H](O)[C@H](N)[C@@H]2O)C[C@@H]2O[C@](O)(C[C@@H](O)C[C@@H](O)[C@H](O)CC[C@@H](O)C[C@@H](O)CC(=O)O[C@H]1C)C[C@H](O)[C@H]2C(=O)O [AmpB, amphotericin B]
IC50 (72 h, across all starting cell densities (1.0, 2.0 and 4.0 x10^5 AU), read-out: IC50 values at 72 h): 270 to 380 nM | IC50 (starting cell density High: 4x10^5 AU, ten 2-fold dilutions from 10 μM, Fig 4E): 310 ± 50 nM | IC50 (starting cell density Low: 1x10^5 AU, ten 2-fold dilutions from 10 μM, Fig 4C): 380 ± 60 nM | IC50 (starting cell density Medium: 2x10^5 AU, ten 2-fold dilutions from 10 μM, Fig 4D): 270 ± 40 nM

From article PMC4380447, “Infrared Fluorescent Imaging as a Potent Tool for In Vitro, Ex Vivo and In Vivo Models of Visceral Leishmaniasis” (PLoS Neglected Tropical Diseases, 2015)
